Data: article PMC9604400, “Synthesis, Anticancer and Antitubercular Properties of New Chalcones and Their Nitrogen-Containing Five-Membered Heterocyclic Hybrids Bearing Sulfonamide Moiety” (International Journal of Molecular Sciences, 2022)
Converted amounts (≈) assume the structure as drawn. Read-outs that look alike come from different tables or passages of the source.

Assays:
Vero cell line = assay: Cytotoxicity on Vero cell line (MTT); assay type: cell-based, African green monkey; conditions: Vero IC50 / MIC M. tuberculosis H37Rv
[1] = Cytotoxicity on Vero cell line (MTT); assay type: cell-based, African green monkey; conditions: African green monkey, Vero cells (African green monkey kidney, ATCC CCL-81); MTT, 24 h
[2] = test system: Mycobacterium bovis BCG (ATCC 35734); assay: microbe, parasite or virus in culture; assay type: cell-based; conditions: for MIC: Mycobacterium tuberculosis variant bovis BCG, read-out: MIC Against M. bovis BCG; for MIC Against M. bovis BCG: agar dilution SPOTi
[3] = test system: Mycobacterium tuberculosis H37Rv (ATCC 27294); assay: microbe, parasite or virus in culture; assay type: cell-based; conditions: agar dilution SPOTi, read-out: MIC Against M. tuberculosis H37Rv
[4] = test system: 60 human cancer cell lines; assay: NCI-60 screen (SRB), whole panel; assay type: cell-based; conditions: Homo sapiens; single dose 10 μM, mean over 60 cell lines; over 100% = cell death; read-out: Mean growth inhibition (GI) percentage
M. tuberculosis H37Rv [5] = assay: Checkerboard synergism assay; assay type: cell-based, Mycobacterium tuberculosis; conditions: for MIC: Mycobacterium tuberculosis, H37RV, checkerboard, alone
Protocol: The synergism assays were carried out in 96-well plates with Middlebrook 7H9 medium supplemented with OADC.

M. tuberculosis H37Rv [6] = assay: Growth curves in liquid medium and re-plating (cidal or static); assay type: cell-based, Mycobacterium tuberculosis
[7] = compound in combination with AMK
[8] = compound in combination with INH
[9] = compound in combination with LVX
[10] = compound in combination with RIF
[11] = antibiotic in combination with 20a
[12] = antibiotic in combination with 20f

Q: For COc1cc(OC)c(S(N)(=O)=O)cc1C(=O)/C=C/c1ccc2c(c1)OCO2 [Compound 17f, (E)-5-(3-(Benzo[d][1,3]dioxol-5-yl)acryloyl)-2,4-dimethoxybenzenesulfonamide], which “Selectivity Index (SI) (SI = IC50/MIC)” value (Vero cell line) is on record?
A: 0.07

Q: And the IC50 at 24 h [1]?
A: 1700 ± 1740 nM

Q: What about the MIC [2] of the same compound?
A: > 25 µM

Q: What about the MIC ([3]; Mycobacterium tuberculosis) of the same compound?
A: 25 µM (≈ 9.79 µg/mL)

Q: What about the melting point of the same compound?
A: 257 to 258 °C

Q: What about the inhibition at 10 µM [4] of the same compound?
A: 10.1%

Q: What does the source list for COc1ccc(C(=O)C=Cc2ccccc2)cc1S(=O)(=O)NNC(=O)c1ccncc1 [Compound 19a, 5-Cinnamoyl-N’-isonicotinoyl-2-methoxybenzenesulfonohydrazide]?
A: Selectivity Index (SI) (SI = IC50/MIC) (Vero cell line): 0.28; IC50 at 24 h [1]: 6320 ± 820 nM; MIC [2]: > 23 µM; MIC ([3]; Mycobacterium tuberculosis): 23 µM (≈ 10.1 µg/mL); melting point: 227 to 229 °C; inhibition at 10 µM [4]: 3.63%

Q: With COc1ccc(/C=C/C(=O)c2ccc(OC)c(S(=O)(=O)NNC(=O)c3ccncc3)c2)cc1 [Compound 19d, (E)-N’-Isonicotinoyl-2-methoxy-5-(3-(4-methoxyphenyl)acryloyl)benzenesulfonohydrazide] as the compound, how does the “Selectivity Index (SI) (SI = IC50/MIC)” value (Vero cell line) read?
A: 0.10

Q: And the IC50 at 24 h [1]?
A: 2190 ± 680 nM

Q: What about the MIC [2] of the same compound?
A: > 21 µM

Q: And the MIC ([3]; Mycobacterium tuberculosis)?
A: 21 µM (≈ 9.82 µg/mL)

Q: And the melting point?
A: 216 to 217 °C

Q: With COc1cc(OC)c(S(=O)(=O)NNC(=O)c2ccncc2)cc1C(=O)C=Cc1ccccc1 [Compound 20a, 5-Cinnamoyl-N’-isonicotinoyl-2,4-dimethoxybenzenesulfonohydrazide] as the compound, how does the IC50 at 24 h [1] read?
A: 6050 ± 1390 nM

Q: What about the MIC (M. tuberculosis H37Rv [5]) of the same compound?
A: 5 µg/mL

Q: What about the “FICI Index” value (M. tuberculosis H37Rv [5]; [7]) of the same compound?
A: 2.00

Q: And the “MIC Combination” value (M. tuberculosis H37Rv [5]; [7])?
A: 5 µg/mL

Q: And the “FICI Index” value (M. tuberculosis H37Rv [5]; [8])?
A: 0.75

Q: And the “MIC Combination” value (M. tuberculosis H37Rv [5]; [8])?
A: 1.25 µg/mL

Q: And the “FICI Index” value (M. tuberculosis H37Rv [5]; [9])?
A: 1.25

Q: And the “MIC Combination” value (M. tuberculosis H37Rv [5]; [9])?
A: 1.25 µg/mL

Q: What about the “FICI Index” value (M. tuberculosis H37Rv [5]; [10]) of the same compound?
A: 1.25

Q: And the “MIC Combination” value (M. tuberculosis H37Rv [5]; [10])?
A: 5 µg/mL

Q: And the MIC [2]?
A: 11 µM (≈ 5.14 µg/mL)

Q: What about the “MIC Against M. bovis BCG” value [2] of the same compound?
A: 11 µM (≈ 5.14 µg/mL)

Q: What about the MIC ([3]; Mycobacterium tuberculosis) of the same compound?
A: 11 µM (≈ 5.14 µg/mL)

Q: And the MIC [3]?
A: 11 µM (≈ 5.14 µg/mL)

Q: And the melting point?
A: 143 to 145 °C

Q: What about the inhibition at 10 µM [4] of the same compound?
A: 19%

Q: For COc1ccc(/C=C/C(=O)c2cc(S(=O)(=O)NNC(=O)c3ccncc3)c(OC)cc2OC)cc1 [Compound 20d, (E)-N’-Isonicotinoyl-2,4-dimethoxy-5-(3-(4-methoxyphenyl)acryloyl)benzenesulfonohydrazide], which “Selectivity Index (SI) (SI = IC50/MIC)” value (Vero cell line) is on record?
A: 0.05

Q: And the IC50 at 24 h [1]?
A: 1000 ± 1200 nM

Q: What about the MIC [2] of the same compound?
A: > 20 µM

Q: And the MIC ([3]; Mycobacterium tuberculosis)?
A: 20 µM (≈ 9.95 µg/mL)

Q: What about the melting point of the same compound?
A: 214 to 217 °C

Q: With COc1cc(OC)c(S(=O)(=O)NNC(=O)c2ccncc2)cc1C(=O)/C=C/c1cc(OC)c(OC)c(OC)c1 [Compound 20e, (E)-N’-Isonicotinoyl-2,4-dimethoxy-5-(3-(3,4,5-trimethoxyphenyl)acryloyl)benzenesulfonohydrazide] as the compound, how does the “Selectivity Index (SI) (SI = IC50/MIC)” value (Vero cell line) read?
A: 0.03

Q: And the IC50 at 24 h [1]?
A: 260 ± 690 nM

Q: And the MIC [2]?
A: 9 µM (≈ 5.02 µg/mL)

Q: What about the “MIC Against M. bovis BCG” value [2] of the same compound?
A: 9.0 µM (≈ 5.02 µg/mL)

Q: And the MIC ([3]; Mycobacterium tuberculosis)?
A: 9 µM (≈ 5.02 µg/mL)

Q: What about the melting point of the same compound?
A: 162 to 165 °C

Q: What about the “growth of M. tuberculosis H37Rv in liquid medium (optical density)” value (M. tuberculosis H37Rv [6]; 1×MIC, after 21 days) of the same compound?
A: moderate growth

Q: And the “growth of M. tuberculosis H37Rv in liquid medium (optical density)” value (M. tuberculosis H37Rv [6]; 10×MIC, 21 days, compared with day 0)?
A: modest growth

Q: And the “cidal or static effect” value (M. tuberculosis H37Rv [6]; re-plating on solid media without compound, up to 10×MIC)?
A: bacteriostatic

Q: Which results are given for COc1ccc(C2=NN(C(N)=S)C(c3ccc(Cl)cc3)C2)cc1S(N)(=O)=O (stereo not shown) [Compound 27a, 5-(4-Chlorophenyl)-3-(4-methoxy-3-sulfamoylphenyl)-4,5-dihydro-1H-pyrazole-1-carbothioamide]?
A: melting point: 206 to 208 °C; inhibition at 10 µM [4]: -0.54%

Q: Which melting point does the source give for COc1cc(OC)c(S(N)(=O)=O)cc1C1=NN(C(N)=S)C(c2ccc(Cl)cc2)C1 (stereo not shown) [Compound 27d, 5-(4-Chlorophenyl)-3-(2,4-dimethoxy-5-sulfamoylphenyl)-4,5-dihydro-1H-pyrazole-1-carbothioamide] here?
A: 223 to 225 °C

Q: What about the inhibition at 10 µM [4] of the same compound?
A: 2.34%

Q: What does the source list for NNC(=O)c1ccncc1 [Isoniazid, isoniazid, reference compound]?
A: MIC (M. tuberculosis H37Rv [5]): 0.012 µg/mL; FICI Index (M. tuberculosis H37Rv [5]; [11]): 0.75; MIC Combination (M. tuberculosis H37Rv [5]; [11]): 0.006 µg/mL; FICI Index (M. tuberculosis H37Rv [5]; [12]): 1.00; MIC Combination (M. tuberculosis H37Rv [5]; [12]): 0.006 µg/mL; MIC [2]: 0.36 µM (≈ 0.0494 µg/mL); MIC ([3]; Mycobacterium tuberculosis): 0.36 µM (≈ 0.0494 µg/mL)
